Earlier results, collected in patent publication US11712422B2, “Pharmaceutical compositions comprising activated carbon” (FERRING B.V., priority 2012, dated 2023).

c1ccc2[nH]ccc2c1 [Indole]
Log P: 2.14
